{"source": "ChEMBL document CHEMBL1130385", "about": "“Synthesis and biological activities of conformationally restricted, tricyclic nonclassical antifolates as inhibitors of dihydrofolate reductases” (J Med Chem, 1997)", "key": {"[1]": {"molecular_target": "T1, Dihydrofolate reductase (Pneumocystis carinii, UniProt P16184)", "T1 sequence (P16184 whole entry)": "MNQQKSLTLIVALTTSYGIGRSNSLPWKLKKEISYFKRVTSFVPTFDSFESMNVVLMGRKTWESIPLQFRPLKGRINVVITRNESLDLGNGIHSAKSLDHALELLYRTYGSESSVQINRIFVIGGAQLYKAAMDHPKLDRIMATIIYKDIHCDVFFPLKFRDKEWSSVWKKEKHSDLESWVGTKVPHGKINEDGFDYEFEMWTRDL", "description": "Inhibitory concentration against Pneumocystis carinii Dihydrofolate reductase"}, "[2]": {"molecular_target": "T2, Dihydrofolate reductase (Rattus norvegicus, UniProt Q920D2)", "T2 sequence (Q920D2 whole entry)": "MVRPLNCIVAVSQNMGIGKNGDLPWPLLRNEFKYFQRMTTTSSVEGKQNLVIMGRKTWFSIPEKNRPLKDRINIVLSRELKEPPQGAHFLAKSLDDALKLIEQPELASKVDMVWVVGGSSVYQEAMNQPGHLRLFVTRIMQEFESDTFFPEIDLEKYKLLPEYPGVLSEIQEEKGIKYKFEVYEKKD", "description": "Inhibitory concentration against Rat liver Dihydrofolate reductase"}, "[3]": {"molecular_target": "T3, Bifunctional dihydrofolate reductase-thymidylate synthase (Toxoplasma gondii, UniProt Q07422)", "T3 sequence (Q07422 whole entry)": "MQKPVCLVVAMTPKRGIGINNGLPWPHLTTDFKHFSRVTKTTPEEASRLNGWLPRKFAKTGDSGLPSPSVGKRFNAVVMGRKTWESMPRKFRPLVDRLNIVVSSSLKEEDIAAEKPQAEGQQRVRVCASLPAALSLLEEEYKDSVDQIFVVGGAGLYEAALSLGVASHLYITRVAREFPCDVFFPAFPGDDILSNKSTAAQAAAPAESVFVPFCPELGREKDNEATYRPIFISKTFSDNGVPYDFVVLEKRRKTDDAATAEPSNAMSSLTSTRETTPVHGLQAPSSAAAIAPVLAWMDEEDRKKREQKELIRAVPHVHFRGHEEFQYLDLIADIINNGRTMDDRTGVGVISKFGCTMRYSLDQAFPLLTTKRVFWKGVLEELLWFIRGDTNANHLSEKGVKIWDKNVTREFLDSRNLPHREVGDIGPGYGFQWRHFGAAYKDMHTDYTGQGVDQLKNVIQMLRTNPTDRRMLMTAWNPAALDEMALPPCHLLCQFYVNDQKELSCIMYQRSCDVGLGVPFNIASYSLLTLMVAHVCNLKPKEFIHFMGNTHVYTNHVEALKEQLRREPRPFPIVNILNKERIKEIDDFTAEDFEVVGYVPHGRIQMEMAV", "experiment": "Inhibitory concentration against Toxoplasma gondii Dihydrofolate reductase"}}, "data": [{"smiles": "COc1cc(N2CCc3c(cnc4nc(N)nc(N)c34)C2)cc(OC)c1OC", "values": [{"measurement": "IC50", "setting": "[1]", "result": "> 2.27", "unit": "µM"}, {"measurement": "IC50", "setting": "[2]", "result": "> 2.7", "unit": "µM"}]}, {"smiles": "COc1cc(N2C=C3C(=O)N=c4nc(N)nc(N)c4=C3CC2)cc(OC)c1OC", "values": [{"measurement": "IC50", "setting": "[2]", "result": 0.24, "unit": "µM"}, {"measurement": "IC50", "setting": "[3]", "result": 1.12, "unit": "µM"}]}, {"smiles": "COc1cc(N2CCc3c(c(=O)[nH]c4nc(N)nc(N)c34)C2)cc(OC)c1OC", "values": [{"measurement": "IC50", "setting": "[1]", "result": "> 5", "unit": "µM"}, {"measurement": "IC50", "setting": "[2]", "result": "> 5", "unit": "µM"}]}, {"smiles": "COc1cc(N2CCC3c4c(N)nc(N)nc4NCC3C2)cc(OC)c1OC", "note": "(centres undefined)", "values": [{"measurement": "IC50", "setting": "[2]", "result": 0.16, "unit": "µM"}, {"measurement": "IC50", "setting": "[3]", "result": 0.29, "unit": "µM"}]}, {"smiles": "COc1c(Cl)c(-n2ccc3c4c(N)nc(N)nc4nc(=O)c-3c2)c(Cl)c(OC)c1OC", "values": [{"measurement": "IC50", "setting": "[2]", "result": 0.5, "unit": "µM"}]}, {"smiles": "COc1cc(N2C=Cc3c(cnc4nc(N)nc(N)c34)C2)cc(OC)c1OC", "values": [{"measurement": "IC50", "setting": "[2]", "result": 0.47, "unit": "µM"}, {"measurement": "IC50", "setting": "[3]", "result": 0.76, "unit": "µM"}]}, {"smiles": "COc1cc(-n2ccc3c4c(N)nc(N)nc4nc(=O)c-3c2)cc(OC)c1OC", "values": [{"measurement": "IC50", "setting": "[1]", "result": 2.4, "unit": "µM"}, {"measurement": "IC50", "setting": "[2]", "result": 0.086, "unit": "µM"}, {"measurement": "IC50", "setting": "[3]", "result": 0.52, "unit": "µM"}]}]}
